System: Utrophin A promoter linked to a luciferase reporter gene in mdx mouse H2K cells
Test: Luciferase reporter assay (murine H2K cells)
Format: cell-based
Conditions: luciferase level, H2K/mdx/Utro A reporter cells, final concentration of 10 μM, 48 hrs
Protocol: The cell line used for the screen is an immortalized mdx mouse H2K cell line that has been stably transfected with a plasmid containing fragment of the Utrophin A promoter including the first untranslated exon linked to a luciferase reporter gene (see FIG. 1).
Under conditions of low temperature and interferon containing media, the cells remain as myoblasts. These are plated into 96 well plates and cultured in the presence of compound for three days. The level of luciferase is then determined by cell lysis and reading of the light output from the expressed luciferase gene utilising a plate luminometer.
The H2K/mdx/Utro A reporter cell line was passaged twice a week until ≦30% confluent. The cells were grown at 33° C. in the presence of 10% CO2.
To remove the myoblasts for platting, they were incubated with Trypsin/EDTA until the monolayer started to detach.
• DMEM Gibco 41966 • 20% FCS • 1% Pen/Strep • 1% glutamine • 10 mls Chick embryo extract • Interferon (1276 905 Roche) Add fresh 10 μl/50 mls medium
The H2K/mdx/Utro A reporter cell line cells were plated out into 96 well plates (Falcon 353296, white opaque) at a density of approximately 5000 cells/well in 190 μl normal growth medium. The plates were then incubated at 33° C. in the presence of 10% CO2 for 24 hrs.
Compounds were dosed by adding 10 μl of diluted compound to each well giving a final concentration of 10 μM. The plates were then incubated for a further 48 hrs.
Cells were then lysed in situ following the manufacture's protocols (Promega Steady-Glo Luciferase Assay System (E2520), then counted for 10 seconds using a plate luminometer (Victor1420).
Compounds for screening were stored at −20° C. as 10 mM stocks in 100% DMSO until required.

Row | SMILES | Activity
1 | CCS(=O)(=O)c1ccc2nn(-c3ccc4ccccc4c3)nc2c1 [Example 4, 5-(ethylsulfonyl)-2-(naphthalen-2′-yl)-2H-benzo[d][1,2,3]triazole] | ++ (Between 201% and 300% relative to control)
2 | CCS(=O)(=O)c1ccc2cn(-c3ccc(Cl)cc3)nc2c1 [Example 3, 2-(4-chlorophenyl)-6-(ethylsulfonyl)-2H-indazole] | ++ (Between 201% and 300% relative to control)
3 | CC(C)C(=O)Nc1ccc2cnn(-c3ccc4ccccc4c3)c2c1 [Example 1, N-(1-(naphthalen-2-yl)-1H-indazol-6-yl)isobutyramide] | + (Up to 200% relative to control)
4 | CC(C)C(=O)Nc1ccc2cn(-c3ccc4ccccc4c3)nc2c1 [Example 2, N-(2-(naphthalen-2-yl)-2H-indazol-6-yl)isobutyramide] | ++++ (Above 401% relative to control)
